Experiment: Phase I clinical trial: treatment-emergent adverse events (patients, n (%)), dose limiting toxicity, MTD
Assay type: in vivo
[1] = Table 8: Total QDx5d QW (N = 6)
[2] = Table 8: Total QW Dosing (N = 15)

Method: Safety, maximum tolerated dose (MTD), pharmacokinetics (PK) and preliminary antitumor activity were evaluated.
Pharmacodynamic (PD) endpoints were evaluated in surrogate (peripheral blood cells [PBCs], skin) and tumor tissues for the phosphorylation of TORC1-dependent markers (4EBP1/S6), and TORC2-dependent markers (AKT/PRAS40).

CC(C)n1nc(-c2ccc3oc(N)nc3c2)c2c(N)ncnc21 [compound A]
Weight decreased (Table 8: Total QDx3d QW (N = 14)): 0 (0%) | Catheter site inflammation [1]: 0 (0%) | Catheter site pain [1]: 0 (0%) | Coagulopathy [1]: 0 (0%) | Confusional state [1]: 0 (0%) | Cough [1]: 0 (0%) | DIARRHEA [1]: 0 (0%) | Dizziness [1]: 0 (0%) | Dyspnoea exertional [1]: 0 (0%) | Eye infection [1]: 0 (0%) | Fatigue [1]: 0 (0%) | Gastritis [1]: 0 (0%) | Gravitational oedema [1]: 0 (0%) | Headache [1]: 0 (0%) | Hyperbilirubinaemia [1]: 0 (0%) | Hypertransaminasaemia [1]: 0 (0%) | Hypertriglyceridaemia [1]: 0 (0%) | Hypocalcaemia [1]: 0 (0%) | Hypomagnesaemia [1]: 0 (0%) | Hypotension [1]: 0 (0%) | Insomnia [1]: 0 (0%) | Low fever [1]: 0 (0%) | Malaise [1]: 0 (0%) | Nausea [1]: 1 (17%) | Oral discomfort [1]: 0 (0%) | Orthostatic hypotension [1]: 0 (0%) | Palmar-plantar erythrodysaesthesia syndrome [1]: 0 (0%) | Panniculitis [1]: 0 (0%) | Platelet count decreased [1]: 0 (0%) | Polyuria [1]: 0 (0%) | Pyrexia [1]: 0 (0%) | Rash [1]: 0 (0%) | Rash macular [1]: 0 (0%) | Skin discolouration [1]: 0 (0%) | Skin exfoliation [1]: 0 (0%) | Urinary tract infection [1]: 0 (0%) | Urine tract infection [1]: 1 (17%) | Vomiting [1]: 1 (17%) | WEAKNESS [1]: 0 (0%) | Weight decreased [1]: 0 (0%) | Catheter site inflammation [2]: 0 (0%) | Catheter site pain [2]: 0 (0%) | Coagulopathy [2]: 0 (0%) | Confusional state [2]: 0 (0%) | Cough [2]: 0 (0%) | DIARRHEA [2]: 1 (7%) | Dizziness [2]: 0 (0%) | Dyspnoea exertional [2]: 0 (0%) | Eye infection [2]: 0 (0%) | Fatigue [2]: 0 (0%) | Gastritis [2]: 0 (0%) | Gravitational oedema [2]: 0 (0%) | Headache [2]: 0 (0%) | Hyperbilirubinaemia [2]: 0 (0%) | Hypertransaminasaemia [2]: 0 (0%) | Hypertriglyceridaemia [2]: 0 (0%) | Hypocalcaemia [2]: 0 (0%) | Hypomagnesaemia [2]: 0 (0%) | Hypotension [2]: 0 (0%) | Insomnia [2]: 0 (0%) | Low fever [2]: 0 (0%) | Malaise [2]: 1 (7%) | Nausea [2]: 0 (0%) | Oral discomfort [2]: 1 (7%) | Orthostatic hypotension [2]: 0 (0%) | Palmar-plantar erythrodysaesthesia syndrome [2]: 0 (0%) | Panniculitis [2]: 0 (0%) | Platelet count decreased [2]: 0 (0%) | Polyuria [2]: 0 (0%) | Pyrexia [2]: 0 (0%) | Rash [2]: 1 (7%) | Rash macular [2]: 0 (0%) | Skin discolouration [2]: 0 (0%) | Skin exfoliation [2]: 0 (0%) | Urinary tract infection [2]: 0 (0%) | Urine tract infection [2]: 0 (0%) | Vomiting [2]: 0 (0%) | WEAKNESS [2]: 1 (7%) | Weight decreased [2]: 0 (0%) | Grade 3 or greater TEAE: Abdominal pain upper (Total (N = 60)): 1 (2%) | Grade 3 or greater TEAE: Anaemia (Total (N = 60)): 1 (2%) | Grade 3 or greater TEAE: Aspartate aminotransferase increased (Total (N = 60)): 1 (2%) | Grade 3 or greater TEAE: Asthenia (Total (N = 60)): 1 (2%) | Grade 3 or greater TEAE: Catheter related infection (Total (N = 60)): 1 (2%) | Grade 3 or greater TEAE: Cellulitis (Total (N = 60)): 1 (2%) | Grade 3 or greater TEAE: Diarrhoea (Total (N = 60)): 3 (5%) | Grade 3 or greater TEAE: Disease progression (Total (N = 60)): 1 (2%) | Grade 3 or greater TEAE: Enterocutaneous fistula (Total (N = 60)): 1 (2%) | Grade 3 or greater TEAE: Gamma-glutamyltransferase increased (Total (N = 60)): 2 (3%) | Grade 3 or greater TEAE: Gastroenteritis (Total (N = 60)): 1 (2%) | Grade 3 or greater TEAE: Hyperglycaemia (Total (N = 60)): 5 (8%) | Grade 3 or greater TEAE: Hypokalaemia (Total (N = 60)): 2 (3%) | Grade 3 or greater TEAE: Hyponatraemia (Total (N = 60)): 2 (3%) | Grade 3 or greater TEAE: Lymphopenia (Total (N = 60)): 4 (7%) | Grade 3 or greater TEAE: Pancreatitis acute (Total (N = 60)): 1 (2%) | Grade 3 or greater TEAE: Pleural effusion (Total (N = 60)): 1 (2%) | Grade 3 or greater TEAE: Pruritus (Total (N = 60)): 2 (3%) | Grade 3 or greater TEAE: Rash (Total (N = 60)): 7 (12%) | Grade 3 or greater TEAE: Rash macular (Total (N = 60)): 1 (2%) | Grade 3 or greater TEAE: Somnolence (Total (N = 60)): 1 (2%) | Grade 3 or greater TEAE: Thrombocytopenia (Total (N = 60)): 2 (3%) | Grade 3 or greater TEAE: Urinary tract infection (Total (N = 60)): 1 (2%) | Patients Reporting at Least One Grade 3 or Greater TEAE (Total (N = 60)): 25 (42%) | Anaemia (Total QD Dosing (N = 25)): 2 (8%) | Asthenia (Total QD Dosing (N = 25)): 6 (24%) | Blood creatinine increased (Total QD Dosing (N = 25)): 6 (24%) | Coagulopathy (Total QD Dosing (N = 25)): 1 (4%) | Confusional state (Total QD Dosing (N = 25)): 1 (4%)
